Calls of active or inactive are those of the source. The rule behind the calls is not given here.
What was measured:
Assay type in all cases: cell-based
[1] = molecular target: Inhibitor of NF-kappa-B kinase alpha/beta (Homo sapiens) (UniProt O14920+O15111); test: Inhibition of TNF-alpha-induced IKKalpha/beta phosphorylation at Ser176/180 in human MDA-MB-231 cells after 20 mins by immunoblot analysis
[2] = molecular target: Transcription factor p65 (Homo sapiens) (UniProt Q04206); test: Inhibition of TNF-alpha-induced Rel-A phosphorylation at Ser536 in human MDA-MB-231 cells after 60 mins by immunoblot analysis
[3] = molecular target: Transcription factor p65 (Homo sapiens) (UniProt Q04206); test: Inhibition of TNF-alpha-induced Rel-A nuclear translocation in human MDA-MB-231 cells assessed as decrease in Rel-A phoshorylation at Ser536 at 20 uM pretreated for 30 mins prior to TNF-alpha stimulation measured after 60 mins by immunofluorescence microscopic analysis

Sequence of Transcription factor p65 (Homo sapiens) (Q04206 whole entry): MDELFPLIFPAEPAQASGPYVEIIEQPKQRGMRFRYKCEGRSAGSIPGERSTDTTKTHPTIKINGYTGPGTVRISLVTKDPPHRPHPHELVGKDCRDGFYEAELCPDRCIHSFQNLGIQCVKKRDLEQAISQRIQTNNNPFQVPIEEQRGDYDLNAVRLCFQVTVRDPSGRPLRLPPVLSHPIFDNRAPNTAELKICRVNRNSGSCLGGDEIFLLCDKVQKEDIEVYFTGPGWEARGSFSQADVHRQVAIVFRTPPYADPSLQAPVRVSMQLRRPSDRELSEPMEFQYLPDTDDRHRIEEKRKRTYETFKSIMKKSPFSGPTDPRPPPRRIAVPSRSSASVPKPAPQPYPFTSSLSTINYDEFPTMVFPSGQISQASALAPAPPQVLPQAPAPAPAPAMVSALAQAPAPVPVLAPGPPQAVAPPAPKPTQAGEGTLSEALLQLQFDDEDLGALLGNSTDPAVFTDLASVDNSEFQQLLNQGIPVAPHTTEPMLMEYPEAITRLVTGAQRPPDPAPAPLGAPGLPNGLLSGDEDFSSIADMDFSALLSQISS

inhibition [1]: Dose-dependent effect
inhibition [2]: Dose-dependent effect
inhibition [3]: Active
SMILES: O=C(/C=C/c1ccccc1)c1ccc2ccccc2c1O

Source: ChEMBL document CHEMBL3585338, “2-Hydroxy-3,4-naphthochalcone (2H-NC) inhibits TNFα-induced tumor invasion through the downregulation of NF-κB-mediated MMP-9 gene expression” (Bioorg Med Chem Lett, 2014)
